Laboratory results as given in patent US4818767A, “Quinate salts of antimalarial phenanthrenemethanol compounds” (SmithKline Beckman Corporation, priority 1983, dated 1989).
Counter-ions that a name gives are not always drawn.

Legend:
P. berghei = experiment: antimalarial activity, standard in vivo test procedure against P. berghei in Swiss mice (ED50 on day 4 of treatment); details: for ED50 Day 4 (mean values): effective dose which decreases the cell parasitemia by 50 percent on day 4 of treatment: Swiss mice infected i.p. with P. berghei, oral intubation in 0.2% methyl cellulose, 1, 4, 16 mg/kg/day × 4 days, 4 mice per group, 5760 min
Procedure: The antimalarial activity of 1-[1,3-dichloro-6-trifluoromethyl-9-phenanthryl]-3-di(n-butyl)aminopropanol quinate (Compound A) was established utilizing the following methodology. Test animals were infected by interperitoneal injection of 9×10^6 parasitized cells of P. berghei contained in 0.25 ml of 1:40 dilution in 0.9% aqueous sodium chloride with potassium citrate added of donor mouse blood which was infected with P. berghei one week earlier. Three days after injection, 3 groups of 4 mice (2 males and 2 females) were treated with Compound A at a dose level of 1, 4 and 16 mg/kg/day for 4 consecutive days. Similarly, a positive control of 3 groups of 4 mice (2 males and 2 females) were treated with halofantrine, as the hydrochloride salt, at a dose level of 1, 4 and 16 mg/kg/day for 4 consecutive days. The route of administration of Compound A and halofantrine was oral intubation of a suspension of each compound in 0.2% methyl cellulose at a constant volume of […]. A negative control group of 4 mice (2 males and 2 females) remained untreated. The results of the above test procedure expressed as an ED50 (the effective dose which decrease the cell parasitemia by 50 percent on day 4 of treatment) are shown below in Table I.

water solubility = assay type: physicochemical; details: weight to weight basis
[1] = system: multi-drug resistant Vietnam Smith strain of P. falciparum; details: administered over a short period of time, minimum of two doses; cited from earlier work
[2] = system: Cambodian Buchanan strain of P. falciparum; details: administered over a short period of time, minimum of two doses; cited from earlier work
[3] = system: Chesson strain of P. vivax; details: administered over a short period of time, minimum of two doses; cited from earlier work
[4] = in vivo; cited from earlier work

SMILES	times more effective, on a weight by weight basis, than halofantrine hydrochloride (ED50 on day 4) (P. berghei; P. berghei malaria in mice, compared to halofantrine hydrochloride)	ED50 Day 4 (mean values): effective dose which decreases the cell parasitemia by 50 percent on day 4 of treatment (P. berghei) [mg/kg]	solubility (water solubility) [mg/mL]	ED50 Day 4 (mean values): effective dose which decreases the cell parasitemia by 50 percent on day 4 of treatment (P. berghei; hydrochloride) [mg/kg]	effectiveness against Vietnam Smith strain [1]	effectiveness against Cambodian Buchanan strain [2]	effectiveness against Chesson strain of P. vivax [3]	systemic bioavailability [4]
CCCCN(CCCC)CCC(O)c1cc2c(Cl)cc(Cl)cc2c2cc(C(F)(F)F)ccc12 (centres unmarked) [Compound A, 1-[1,3-dichloro-6-trifluoromethyl-9-phenanthryl]-3-di(n-butyl)aminopropanol quinate]	at least 6 times	≤ 1	≤ 200	–	–	–	–	–
CCCCN(CCCC)CCC(O)c1cc2c(Cl)cc(Cl)cc2c2cc(C(F)(F)F)ccc12 (centres unmarked) [Halofantrine (HCl), 1-[1,3-dichloro-6-trifluoromethyl-9-phenanthryl]-3-di-(n-butyl)-aminopropanol hydrochloride]	–	–	–	6	effective	effective	effective	problems with systemic bioavailability remained
